Results published in ChEMBL document CHEMBL1153224, “Fluorinated piperidine acetic acids as gamma-secretase modulators” (Bioorg Med Chem Lett, 2010).

Key:
Gamma-secretase [1] = test: Inhibition of gamma secretase in human SHSY5Y cells expressing wild-type APP assessed as inhibition of intracellular amyloid beta-42 by electrochemiluminescent assay; format: cell-based; settings: sh-sy5y
Gamma-secretase [2] = test: Inhibition of gamma secretase in human SHSY5Y cells expressing wild-type APP assessed as inhibition of intracellular amyloid beta-40 by electrochemiluminescent assay; format: cell-based; settings: sh-sy5y
Mus musculus [3] = test: (§1) Plasma concentration in APP-YAC transgenic mouse at 10 mg/kg, po after 7 hrs; format: ADME, organism-based; set-up: dose 10 mg/kg, route oral; settings: in vivo, 7 h
Mus musculus [4] = test: (§2) Drug level in APP-YAC transgenic mouse brain at 10 mg/kg, po after 7 hrs; format: ADME, organism-based; set-up: dose 10 mg/kg, route oral; settings: in vivo, 7 h
[5] = Half life in rat at 1 mg/kg, iv and 2 mg/kg, po; format: ADME, organism-based; settings: in vivo
Brain [6] = test: Reduction in amyloid beta 42 level in APP-YAC transgenic mouse brain at 20 mg/kg, po after 7 hrs; format: functional; set-up: scale not given: the % may be the effect or the level left
[7] = (§3) Oral bioavailability in rat at 2 mg/kg; format: ADME, organism-based; settings: in vivo
[8] = Volume of distribution at steady state in rat at 1 mg/kg, iv and 2 mg/kg, po; format: ADME, organism-based; settings: in vivo, read-out: Vdss
[9] = Plasma clearance in rat at 1 mg/kg, iv and 2 mg/kg, po; format: ADME, organism-based
[10] = as §1; format: ADME, organism-based; set-up: dose 10 mg/kg, route oral; settings: APP-YAC transgenic, plasma
Rattus norvegicus [11] = test: Toxicity in rat assessed as notch -related activity at 250 mg/kg, after 7 days; format: organism-based; set-up: dose 250 mg/kg; settings: in vivo, 168 h
Brain [12] = test: Reduction in amyloid beta 42 level in rat brain after 7 hrs; format: functional, tissue-based
[13] = as §2; format: ADME, organism-based; set-up: dose 10 mg/kg, route oral; settings: APP-YAC transgenic, brain, read-out: Drug uptake
Plasma = test: Reduction in amyloid beta 42 level in rat plasma after 7 hrs; format: functional, cell-free
Rattus norvegicus [14] = species: Rattus norvegicus; test: Reduction in amyloid beta 42 level in rat after 7 hrs; format: functional, organism-based
[15] = AUC (0 to 24 hrs) in rat at 250 mg/kg, po after 7 days; format: ADME, organism-based; set-up: time < 24 hr, dose 250 mg/kg, route oral; settings: plasma
Rattus norvegicus [16] = test: as §3; format: ADME, organism-based; settings: in vivo

Structure (SMILES) | IC50 (Gamma-secretase [1]) [nM] | IC50 (Gamma-secretase [2]) [nM] | further results
CN1CCC(F)(F)[C@H](CC(=O)O)[C@H]1c1ccc(C(F)(F)F)cc1 | > 10000 | > 10000 | –
C[Si](C)(C)CC[C@H](CCC(F)(F)F)N1CC[C@@H](CC(=O)O)C(F)(F)[C@H]1c1ccc(C(F)(F)F)cc1 | 230 | > 10000 | Cp (Mus musculus [3]): Not Active; Drug uptake (Mus musculus [4]): Not Active; half-life [5]: 6.4 h; Activity (Brain [6]): -64%; bioavailability [7]: 20%; Vd [8]: 5.1 L/kg; clearance [9]: 9.1 mL/min/kg
CC(C)(C)C#CC(CCC(F)(F)F)N1CCC(F)(F)[C@H](CC(=O)O)[C@H]1c1ccc(C(F)(F)F)cc1 (some centres not stated) | 1500 | > 10000 | –
CC(C)CCC(CCC(C)C)N1CCC(F)(F)[C@H](CC(=O)O)[C@H]1c1ccc(C(F)(F)F)cc1 | 880 | > 10000 | –
CC(C)(C)CCC(CCC(F)(F)F)N1CCC(F)(F)[C@H](CC(=O)O)[C@H]1c1ccc(C(F)(F)F)cc1 (single isomer, unassigned; enantiomer 1) | 1400 | > 10000 | –

The remaining compounds from weak to strong by IC50 (Gamma-secretase [1]), led by results:

IC50 (Gamma-secretase [1]) [nM] | IC50 (Gamma-secretase [2]) [nM] | Structure (SMILES) | further results
800 | > 10000 | CC(C)(C)C#CC(CCC(F)(F)F)N1CCC(F)(F)[C@H](CC(=O)O)[C@H]1c1ccc(C(F)(F)F)cc1 (mixture of isomers) | –
710 | > 10000 | CC(C)CC[C@H](c1ccc(C(F)(F)F)cc1)N1CC[C@@H](CC(=O)O)C(F)(F)[C@H]1c1ccc(C(F)(F)F)cc1 | –
640 | > 10000 | C[Si](C)(C)CCC(CCC(F)(F)F)N1CCC(F)(F)[C@H](CC(=O)O)[C@H]1c1ccc(C(F)(F)F)cc1 (single isomer, unassigned; enantiomer 2) | –
600 | > 10000 | CC(C)(C)CCC(CCC(F)(F)F)N1CCC(F)(F)[C@H](CC(=O)O)[C@H]1c1ccc(C(F)(F)F)cc1 (some centres not stated) | concentration at 7 h [10]: 1100 nM; Activity (Rattus norvegicus [11]): Non-toxic; EC50 (Brain [12]): 1000 nM; concentration at 7 h [13]: 580 nM; half-life [5]: 5.1 h; EC50 (Plasma): 3700 nM; Activity (Brain [6]): -84%; IC50 (Rattus norvegicus [14]): Dose-dependent effect; ED50 (Rattus norvegicus [14]; Rattus norvegicus, 7 h): 5 mg/kg; AUC at 24 h [15]: 2100 µM·h; F (Rattus norvegicus [16]): 160%; Vd [8]: 1.9 L/kg; clearance [9]: 3.8 mL/min/kg
490 | > 10000 | CC(C)(C)CC[C@H](CCC(F)(F)F)N1CC[C@@H](CC(=O)O)C(F)(F)[C@H]1c1ccc(C(F)(F)F)cc1 | –
390 | > 10000 | CC(C)(C)C#CC(CCC(F)(F)F)N1CCC(F)(F)[C@H](CC(=O)O)[C@H]1c1ccc(C(F)(F)F)cc1 (single isomer, unassigned; enantiomer 2) | –
